From article PMC10046369, “Low-Affinity/High-Selectivity Dopamine Transport Inhibition Sufficient to Rescue Cognitive Functions in the Aging Rat” (Biomolecules, 2023)

Key:
Assay in all cases: biochemical
Design in all cases: KINOMEscan competition binding panel, per cent of control
Conditions in all cases: read-out: %Ctrl @ 2800nM
EPHB6 = EPHB6 (Homo sapiens, UniProt O15197)
Outline: (§1)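 Values are expressed as percent of control, calculated as ((test − positive control)/(negative control − positive control)) × 100, so lower numbers mean stronger hits. Binding was measured by KINOMEscan competition assay in a 450-kinase human panel including disease mutants, using the contractor's validated protocol.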

CDK4 = CDK4 (Homo sapiens, UniProt P11802)
Outline: as §1

GCN2(Kin.Dom.2,S808G) = target: T1, GCN2(Kin.Dom.2,S808G) (Homo sapiens, UniProt Q9P2K8, S808G)
T1 construct: gene EIF2AK4; Kin.Dom.2
T1 sequence (Q9P2K8 whole entry S808G): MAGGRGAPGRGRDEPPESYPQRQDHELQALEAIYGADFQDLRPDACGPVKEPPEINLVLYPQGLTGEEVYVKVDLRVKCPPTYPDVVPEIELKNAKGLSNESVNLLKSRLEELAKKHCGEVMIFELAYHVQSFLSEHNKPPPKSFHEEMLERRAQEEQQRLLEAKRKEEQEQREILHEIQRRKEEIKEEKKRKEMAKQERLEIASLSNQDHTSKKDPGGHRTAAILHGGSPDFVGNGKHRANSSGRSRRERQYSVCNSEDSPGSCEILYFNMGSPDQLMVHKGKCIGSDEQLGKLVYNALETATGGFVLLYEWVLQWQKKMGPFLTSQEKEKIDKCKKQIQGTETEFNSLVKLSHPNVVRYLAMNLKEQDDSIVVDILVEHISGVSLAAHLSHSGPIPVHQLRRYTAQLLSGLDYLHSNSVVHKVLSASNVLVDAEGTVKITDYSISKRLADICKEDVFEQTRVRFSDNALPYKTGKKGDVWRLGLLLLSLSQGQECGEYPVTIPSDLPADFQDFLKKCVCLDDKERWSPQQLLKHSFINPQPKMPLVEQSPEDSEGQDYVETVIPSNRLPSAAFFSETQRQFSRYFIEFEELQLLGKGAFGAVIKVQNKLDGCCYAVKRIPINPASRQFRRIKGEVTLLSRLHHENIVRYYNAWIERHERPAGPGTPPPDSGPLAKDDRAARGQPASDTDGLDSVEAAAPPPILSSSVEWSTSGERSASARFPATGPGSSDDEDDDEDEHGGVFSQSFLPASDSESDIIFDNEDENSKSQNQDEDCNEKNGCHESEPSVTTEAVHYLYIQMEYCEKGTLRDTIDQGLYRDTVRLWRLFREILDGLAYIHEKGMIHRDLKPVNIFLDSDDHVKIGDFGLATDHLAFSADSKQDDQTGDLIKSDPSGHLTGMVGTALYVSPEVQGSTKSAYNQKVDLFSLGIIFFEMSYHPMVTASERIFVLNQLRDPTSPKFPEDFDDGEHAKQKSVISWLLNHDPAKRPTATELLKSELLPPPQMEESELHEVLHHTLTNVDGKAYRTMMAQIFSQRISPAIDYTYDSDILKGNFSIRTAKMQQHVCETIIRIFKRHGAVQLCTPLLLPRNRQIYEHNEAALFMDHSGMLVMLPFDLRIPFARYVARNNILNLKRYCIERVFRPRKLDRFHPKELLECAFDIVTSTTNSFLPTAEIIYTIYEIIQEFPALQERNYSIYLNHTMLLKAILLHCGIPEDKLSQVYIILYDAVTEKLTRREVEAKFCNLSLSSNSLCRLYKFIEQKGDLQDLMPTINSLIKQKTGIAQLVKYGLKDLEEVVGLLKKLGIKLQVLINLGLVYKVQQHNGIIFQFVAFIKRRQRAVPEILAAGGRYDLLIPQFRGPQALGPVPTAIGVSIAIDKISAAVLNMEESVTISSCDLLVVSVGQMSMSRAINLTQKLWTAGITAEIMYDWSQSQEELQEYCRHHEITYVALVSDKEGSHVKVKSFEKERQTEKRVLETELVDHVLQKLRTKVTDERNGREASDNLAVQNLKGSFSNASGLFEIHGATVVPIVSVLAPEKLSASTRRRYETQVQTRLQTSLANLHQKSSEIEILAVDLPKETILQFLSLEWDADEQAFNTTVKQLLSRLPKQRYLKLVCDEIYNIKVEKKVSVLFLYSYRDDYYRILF
Outline: as §1

DYRK1A = DYRK1A (Homo sapiens, UniProt Q13627)
Outline: as §1

[1] = target: T2, RSK2(Kin.Dom.1-N-terminal) (Homo sapiens, UniProt P51812)
T2 construct: gene RPS6KA3; Kin.Dom.1-N-terminal
T2 sequence (P51812 whole entry): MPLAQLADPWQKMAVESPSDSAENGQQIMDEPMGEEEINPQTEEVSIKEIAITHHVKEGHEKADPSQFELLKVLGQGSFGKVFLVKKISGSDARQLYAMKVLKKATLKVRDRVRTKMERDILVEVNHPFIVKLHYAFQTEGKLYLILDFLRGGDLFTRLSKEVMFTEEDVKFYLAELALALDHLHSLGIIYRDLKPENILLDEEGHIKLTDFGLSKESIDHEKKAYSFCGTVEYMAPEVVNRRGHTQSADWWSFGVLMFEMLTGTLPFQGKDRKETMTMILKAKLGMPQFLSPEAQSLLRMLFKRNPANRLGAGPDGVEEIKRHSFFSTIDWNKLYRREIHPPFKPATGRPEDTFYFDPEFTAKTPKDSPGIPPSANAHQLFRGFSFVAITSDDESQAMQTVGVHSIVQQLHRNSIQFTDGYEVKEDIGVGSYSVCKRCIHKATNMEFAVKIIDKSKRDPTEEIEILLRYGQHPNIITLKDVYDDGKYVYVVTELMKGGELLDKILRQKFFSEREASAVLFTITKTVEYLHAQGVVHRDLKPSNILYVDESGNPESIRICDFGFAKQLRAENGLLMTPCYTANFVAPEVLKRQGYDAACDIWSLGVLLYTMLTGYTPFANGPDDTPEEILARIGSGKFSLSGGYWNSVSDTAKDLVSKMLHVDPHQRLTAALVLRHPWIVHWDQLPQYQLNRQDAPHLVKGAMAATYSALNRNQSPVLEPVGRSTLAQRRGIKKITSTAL
Outline: as §1

[2] = target: T3, ABL1(M351T)-phosphorylated (Homo sapiens, UniProt P00519, M351T)
T3 construct: phosphorylated
Outline: as §1

ADCK3 = target: T4, ADCK3 (Homo sapiens, UniProt Q8NI60)
T4 construct: gene COQ8A
Outline: as §1

LZK = target: T5, LZK (Homo sapiens, UniProt O43283)
T5 construct: gene MAP3K13
Outline: as §1

PIK3CA(I800L) = PIK3CA(I800L) (Homo sapiens, UniProt P42336, I800L)
Outline: as §1

MAPKAPK5 = MAPKAPK5 (Homo sapiens, UniProt Q8IW41)
Outline: as §1

KIT(D816V) = KIT(D816V) (Homo sapiens, UniProt P10721, D816V)
KIT(D816V), sequence (P10721 whole entry D816V): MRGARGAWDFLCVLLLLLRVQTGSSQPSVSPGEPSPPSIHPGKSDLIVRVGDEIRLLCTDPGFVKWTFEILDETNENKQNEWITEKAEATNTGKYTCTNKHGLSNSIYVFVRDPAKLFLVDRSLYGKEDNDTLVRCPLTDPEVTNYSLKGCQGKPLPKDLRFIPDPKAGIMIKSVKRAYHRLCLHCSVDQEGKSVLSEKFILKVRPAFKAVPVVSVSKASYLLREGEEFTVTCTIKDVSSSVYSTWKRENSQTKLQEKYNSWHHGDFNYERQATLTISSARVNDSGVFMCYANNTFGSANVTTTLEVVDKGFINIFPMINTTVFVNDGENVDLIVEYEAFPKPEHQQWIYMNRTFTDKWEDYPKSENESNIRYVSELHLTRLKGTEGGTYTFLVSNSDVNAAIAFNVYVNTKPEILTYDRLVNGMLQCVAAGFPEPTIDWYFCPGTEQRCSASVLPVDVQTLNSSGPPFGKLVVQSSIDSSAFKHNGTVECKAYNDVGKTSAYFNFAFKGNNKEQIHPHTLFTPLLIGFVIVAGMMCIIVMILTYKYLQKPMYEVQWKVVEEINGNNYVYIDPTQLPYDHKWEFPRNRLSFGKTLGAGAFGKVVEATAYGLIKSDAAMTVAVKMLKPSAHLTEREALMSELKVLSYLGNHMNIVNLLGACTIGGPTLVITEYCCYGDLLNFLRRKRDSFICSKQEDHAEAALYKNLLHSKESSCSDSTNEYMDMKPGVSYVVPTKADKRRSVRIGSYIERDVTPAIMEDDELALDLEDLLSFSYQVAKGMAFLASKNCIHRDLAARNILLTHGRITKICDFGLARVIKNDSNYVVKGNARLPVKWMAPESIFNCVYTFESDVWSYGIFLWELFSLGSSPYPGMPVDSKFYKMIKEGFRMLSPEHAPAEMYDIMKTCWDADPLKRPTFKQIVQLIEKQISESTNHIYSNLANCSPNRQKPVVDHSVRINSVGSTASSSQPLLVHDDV
Outline: as §1

LOK = target: T6, LOK (Homo sapiens, UniProt O94804)
T6 construct: gene STK10
Outline: as §1

MEK6 = target: T7, MEK6 (Homo sapiens, UniProt P52564)
T7 construct: gene MAP2K6
Outline: as §1

TIE1 = TIE1 (Homo sapiens, UniProt P35590)
Outline: as §1

CDK3 = CDK3 (Homo sapiens, UniProt Q00526)
Outline: as §1

[3] = target: T8, RSK4(Kin.Dom.2-C-terminal) (Homo sapiens, UniProt Q9UK32)
T8 construct: gene RPS6KA6; Kin.Dom.2-C-terminal
Outline: as §1

ALK(L1196M) = ALK(L1196M) (Homo sapiens, UniProt Q9UM73, L1196M)
Outline: as §1

CSNK1E = CSNK1E (Homo sapiens, UniProt P49674)
Outline: as §1

PFTAIRE2 = target: T9, PFTAIRE2 (Homo sapiens, UniProt Q96Q40)
T9 construct: gene CDK15
Outline: as §1

FGFR2 = FGFR2 (Homo sapiens, UniProt P21802)
Outline: as §1

FGFR1 = FGFR1 (Homo sapiens, UniProt P11362)
Outline: as §1

CAMK2A = CAMK2A (Homo sapiens, UniProt Q9UQM7)
Outline: as §1

TNIK = TNIK (Homo sapiens, UniProt Q9UKE5)
Outline: as §1

PIK3CA(H1047Y) = PIK3CA(H1047Y) (Homo sapiens, UniProt P42336, H1047Y)
Outline: as §1

OSR1 = target: T10, OSR1 (Homo sapiens, UniProt O95747)
T10 construct: gene OXSR1
T10 sequence (O95747 whole entry): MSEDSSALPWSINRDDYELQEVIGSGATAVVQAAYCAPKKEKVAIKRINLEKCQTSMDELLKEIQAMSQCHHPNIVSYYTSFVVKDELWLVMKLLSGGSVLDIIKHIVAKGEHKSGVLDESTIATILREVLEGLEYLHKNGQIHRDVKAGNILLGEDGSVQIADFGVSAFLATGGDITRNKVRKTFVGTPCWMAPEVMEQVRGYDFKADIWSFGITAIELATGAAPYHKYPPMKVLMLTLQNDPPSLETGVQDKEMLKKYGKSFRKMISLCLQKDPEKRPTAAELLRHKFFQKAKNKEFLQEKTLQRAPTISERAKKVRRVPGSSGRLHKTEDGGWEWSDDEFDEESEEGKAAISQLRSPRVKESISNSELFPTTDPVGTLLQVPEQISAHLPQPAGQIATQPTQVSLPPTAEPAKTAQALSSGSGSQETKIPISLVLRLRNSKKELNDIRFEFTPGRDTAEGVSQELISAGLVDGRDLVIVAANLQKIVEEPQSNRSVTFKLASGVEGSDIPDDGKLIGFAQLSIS
Outline: as §1

EPHB6, sequence (O15197 whole entry): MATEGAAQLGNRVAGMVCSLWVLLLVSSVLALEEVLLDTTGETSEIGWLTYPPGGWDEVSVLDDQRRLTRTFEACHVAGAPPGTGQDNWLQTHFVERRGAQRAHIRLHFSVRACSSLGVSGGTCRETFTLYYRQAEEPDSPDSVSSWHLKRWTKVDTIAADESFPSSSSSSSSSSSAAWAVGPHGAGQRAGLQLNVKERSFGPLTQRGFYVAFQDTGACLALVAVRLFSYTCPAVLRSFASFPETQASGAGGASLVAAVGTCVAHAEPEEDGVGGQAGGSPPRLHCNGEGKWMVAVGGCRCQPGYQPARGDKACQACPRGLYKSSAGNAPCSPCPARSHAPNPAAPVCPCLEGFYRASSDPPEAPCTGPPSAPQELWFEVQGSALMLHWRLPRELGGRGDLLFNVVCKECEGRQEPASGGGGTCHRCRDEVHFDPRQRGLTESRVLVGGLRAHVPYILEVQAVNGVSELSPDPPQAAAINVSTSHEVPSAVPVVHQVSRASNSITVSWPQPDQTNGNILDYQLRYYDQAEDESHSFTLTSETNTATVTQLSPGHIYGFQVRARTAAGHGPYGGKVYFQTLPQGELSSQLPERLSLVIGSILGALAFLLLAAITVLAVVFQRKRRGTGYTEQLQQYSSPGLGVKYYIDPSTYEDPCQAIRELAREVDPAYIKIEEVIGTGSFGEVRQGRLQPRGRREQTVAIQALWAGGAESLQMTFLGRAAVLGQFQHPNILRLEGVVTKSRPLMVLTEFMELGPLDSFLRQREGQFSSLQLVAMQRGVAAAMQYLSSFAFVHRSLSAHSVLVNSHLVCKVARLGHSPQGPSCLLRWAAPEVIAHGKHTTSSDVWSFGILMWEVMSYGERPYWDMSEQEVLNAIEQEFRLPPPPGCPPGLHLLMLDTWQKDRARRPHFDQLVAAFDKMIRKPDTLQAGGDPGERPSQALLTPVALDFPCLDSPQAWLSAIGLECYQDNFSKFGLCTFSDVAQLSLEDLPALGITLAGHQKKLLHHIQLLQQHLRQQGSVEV

[O-][S@@+](Cc1cncs1)C(c1ccccc1)c1ccccc1 [S-CE-123, (S)-5-((Benzhydrylsulfinyl)Methyl)Thiazole]
remaining binding at 2.8 µM (EPHB6): 89% | remaining binding at 2.8 µM (CDK4): 100% | remaining binding at 2.8 µM (GCN2(Kin.Dom.2,S808G)): 100% | remaining binding at 2.8 µM (DYRK1A): 96% | remaining binding at 2.8 µM [1]: 100% | remaining binding at 2.8 µM [2]: 100% | remaining binding at 2.8 µM (ADCK3): 87% | remaining binding at 2.8 µM (LZK): 94% | remaining binding at 2.8 µM (PIK3CA(I800L)): 84% | remaining binding at 2.8 µM (MAPKAPK5): 100% | remaining binding at 2.8 µM (KIT(D816V)): 97% | remaining binding at 2.8 µM (LOK): 95% | remaining binding at 2.8 µM (MEK6): 89% | remaining binding at 2.8 µM (TIE1): 100% | remaining binding at 2.8 µM (CDK3): 100% | remaining binding at 2.8 µM [3]: 94% | remaining binding at 2.8 µM (ALK(L1196M)): 100% | remaining binding at 2.8 µM (CSNK1E): 96% | remaining binding at 2.8 µM (PFTAIRE2): 100% | remaining binding at 2.8 µM (FGFR2): 87% | remaining binding at 2.8 µM (FGFR1): 100% | remaining binding at 2.8 µM (CAMK2A): 93% | remaining binding at 2.8 µM (TNIK): 89% | remaining binding at 2.8 µM (PIK3CA(H1047Y)): 100% | remaining binding at 2.8 µM (OSR1): 90%
